Measurements as given in US8658158B2, “Sensitization of chemotherapeutic agent resistant neoplastic cells with a virus” (Oncolytics Biotech Inc., priority 2001, dated 2014).
Entries after “also recorded” stand apart in the source; their conditions may differ.

System: ras-transformed C3H cells (C3H10T1/2 derived tumors)
Assay: Tumor growth in C3H mice bearing subcutaneous ras-transformed C3H cell tumors, treated with reovirus and/or cisplatin
Format: in vivo
Settings: syngeneic tumors measured daily from Day 0, cisplatin 2.5 mg/kg tail vein Days 10, 16, 22, reovirus 5×10^8 PFUs i.v. Days 0, 6, 12, 18
Text: C3H mice (Charles River) were implanted subcutaneously with 1.0×10^6 […] ras-transformed C3H cells (a gift of D. Edwards, University of Calgary) and allowed to develop tumors. The Dearing strain of reovirus serotype 3 used in these studies was propagated in suspension cultures of L cells and purified according to Smith (Smith et al., 1969) with the exception that β-mercaptoethanol (β-ME) was omitted from the extraction buffer. The particle/PFU ratio for purified reovirus was typically 100/1.
The tumor bearing mice were treated with 4 different regimes as described below:
For animals which received reovirus (Series 3-4), 5×10^8 PFUs of reovirus (in 20 μl of saline) were injected intravenously via the tail vein of the animals on Days 0, 6, 12, and 18. […] Cisplatin was injected into the tail vein on Days 10, 16 and 22 at a dose of 2.5 mg per kilogram of body weight. The tumors were measured daily from Day 0 to assess growth rate of the tumors.

For N.N.[Cl][Pt][Cl] [cisplatin], which “effect on growth rate of the tumors” value is on record?
The value was “essentially no inhibitory effects; also recorded: no effect on the tumor; also recorded: growth rate that was essentially the same as untreated tumors”.
